Values quoted from earlier work, collected in patent publication US11793840B2, “Nano-armored single cell product for treating Parkinson's disease through bacteria and a preparation method thereof” (Tangyi Holdings(Shenzhen) Limited, priority 2021, dated 2023).

- in-vivo terminal elimination half-life (in vivo): 25.1 min
- oral bioavailability (oral administration of GABA): 9.81%
SMILES: NCCCC(=O)O [GABA, Gamma-aminobutyric acid]
